According to PubChem BioAssay AID743339 (Broad Institute, 2014):
Calls of active or inactive are those of the source.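 Rule for the calls: active = activation curve crossing 200% at or below the highest valid dose tested for that sample; inconclusive = flat curve with activation between 30 and 70%, or poor fit; inactive = the rest, including signal falling instead of rising.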

biological target: Leucyl-cystinyl aminopeptidase (Mus musculus) (UniProt Q8C129); test: activation of mouse IRAP aminopeptidase activity – biochemical, Leu-AMC fluorescence, cherry-picked samples, selectivity assay for ERAP1 modulator project, dose response (AID 743339); settings: purified IRAP, Leu-AMC cleavage fluorescence, 1 h
Sequence (Q8C129 whole entry, looked up): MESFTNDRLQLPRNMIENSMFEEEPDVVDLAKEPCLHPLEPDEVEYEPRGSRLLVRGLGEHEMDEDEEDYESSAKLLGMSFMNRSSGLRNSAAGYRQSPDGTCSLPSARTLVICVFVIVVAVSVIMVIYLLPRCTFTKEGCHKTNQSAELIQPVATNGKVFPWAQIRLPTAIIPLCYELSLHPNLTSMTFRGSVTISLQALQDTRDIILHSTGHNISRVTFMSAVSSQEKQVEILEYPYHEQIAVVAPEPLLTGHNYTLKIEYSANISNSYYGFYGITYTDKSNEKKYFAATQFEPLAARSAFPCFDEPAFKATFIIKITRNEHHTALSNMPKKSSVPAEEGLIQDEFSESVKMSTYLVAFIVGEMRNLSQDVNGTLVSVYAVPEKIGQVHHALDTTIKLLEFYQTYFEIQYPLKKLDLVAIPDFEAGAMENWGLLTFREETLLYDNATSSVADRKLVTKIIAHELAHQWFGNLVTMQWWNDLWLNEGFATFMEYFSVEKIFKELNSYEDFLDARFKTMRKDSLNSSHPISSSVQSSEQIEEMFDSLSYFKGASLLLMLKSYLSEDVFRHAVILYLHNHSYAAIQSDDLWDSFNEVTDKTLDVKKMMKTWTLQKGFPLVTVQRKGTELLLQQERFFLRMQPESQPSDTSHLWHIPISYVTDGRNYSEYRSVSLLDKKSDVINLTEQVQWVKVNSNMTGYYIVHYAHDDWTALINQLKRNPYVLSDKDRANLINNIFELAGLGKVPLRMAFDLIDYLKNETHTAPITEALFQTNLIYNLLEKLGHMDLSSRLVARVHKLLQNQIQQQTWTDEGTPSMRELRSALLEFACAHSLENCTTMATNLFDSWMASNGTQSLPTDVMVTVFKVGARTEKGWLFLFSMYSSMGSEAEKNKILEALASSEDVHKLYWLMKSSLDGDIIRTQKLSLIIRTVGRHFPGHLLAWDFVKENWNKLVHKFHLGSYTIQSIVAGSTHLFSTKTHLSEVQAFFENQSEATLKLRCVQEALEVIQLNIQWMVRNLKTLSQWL

Row | Structure (SMILES) | AC200
1 | CCc1c(C)c2cc(Cl)c(O)c(CN(CC)CC)c2oc1=O | 546 nM
2 | CCNC(=O)[C@@H]1[C@@H](CO)[C@@H]2Cn3c(ccc(/C=C/c4ccccc4)c3=O)[C@H]1N2C(=O)C1CCCC1 | 824 nM
3 | CC(=O)N1[C@@H]2c3ccc(/C=C/c4ccccc4)c(=O)n3C[C@H]1[C@H](CO)[C@H]2C(=O)N(C)C | 906 nM
4 | CN1CCCC1CCNc1ccc2c(=O)c3ccccc3oc2c1 (stereo not given) | 555 nM
5 | CC(=O)Oc1cc2oc(=O)cc(C)c2cc1Cl | 507 nM
6 | CC(=O)N1[C@@H]2Cn3c(ccc(/C=C/c4ccccc4)c3=O)[C@H]1[C@@H](C(=O)NCC1CC1)[C@@H]2CO | 1290 nM
7 | COc1cc2ccc(=O)oc2cc1O | 348 nM
8 | C/C(=N\NC(=O)CC#N)c1cc2ccc(O)cc2oc1=O | 1080 nM
9 | O=c1ccc2cc(O)c(O)cc2o1 | 2120 nM
10 | Cc1c(-c2ccccc2)c(=O)oc2cc(O)ccc12 | 1240 nM
11 | CCCc1cc(=O)oc2c(CN(CC)CC)c(O)c(Cl)cc12 | 638 nM
12 | Cc1cc(=O)oc2c(CN3CCN(CCO)CC3)c(O)ccc12 | 1450 nM
13 | N#Cc1c(N)n(CCNC(=O)c2ccccc2)c2nc3ccccc3nc12 | > 2600 nM (inactive)
14 | O=c1cc(CN2CCN(Cc3ccccc3)CC2)c2ccc(O)cc2o1 | 1470 nM
15 | COc1ccc(-c2cc3ccc(O)cc3oc2=O)cc1 | 398 nM
16 | O=C(NCC1CC1)[C@H]1[C@H](CO)[C@H]2Cn3c(ccc(/C=C/c4ccccc4)c3=O)[C@@H]1N2C(=O)C1CC1 | 927 nM
17 | Cc1c(O)ccc2cc(S(=O)(=O)c3ccccc3)c(=O)oc12 | 439 nM
18 | CCCN1[C@@H]2Cn3c(ccc(/C=C/c4ccccc4)c3=O)[C@H]1[C@@H](C(=O)NCc1ccccn1)[C@@H]2CO | 992 nM
19 | Cc1c(C)c2ccc(O)c(CN3CCCC3)c2oc1=O | 1040 nM
20 | CCN(CC)c1ccc2c(C)c(Cl)c(=O)oc2c1 | 964 nM
21 | CCCN1[C@@H]2c3ccc(/C=C/c4ccccc4)c(=O)n3C[C@H]1[C@H](CO)[C@H]2C(=O)NCc1ccccn1 | 1000 nM
22 | COC(=O)Cc1c(C)c2ccc(O)c(CNCc3ccc(OC)c(OC)c3)c2oc1=O | 535 nM
23 | COCCCn1c(C(=O)N2CCOCC2)cc2c(=O)n3ccccc3nc21 | > 2600 nM (inactive)
24 | CCN(CC)Cc1c(O)c(Cl)cc2c(C)cc(=O)oc12 | 620 nM
25 | COc1ccc(-c2cc3ccc(O)cc3oc2=O)cc1OC | 983 nM
26 | Cc1c(O)ccc2c(CN3CCN(Cc4ccccc4)CC3)cc(=O)oc12 | > 2600 nM (inactive)
27 | CCC(=O)N1[C@@H]2c3ccc(/C=C/c4ccccc4)c(=O)n3C[C@H]1[C@H](CO)[C@H]2C(=O)N(C)C | 872 nM

same assay, conditions: purified IRAP, Leu-AMC cleavage fluorescence, 1 h; at 2.6 µM (top of the series)

Row | Structure (SMILES) | activation
28 | COc1cc2cc(C(=O)N3CCN(Cc4ccc5c(c4)OCO5)CC3)c(=O)oc2cc1OC | 150% (inactive)

same assay, conditions: purified IRAP, Leu-AMC cleavage fluorescence, 1 h; at 5 µM (top of the series)

Row | Structure (SMILES) | activation
29 | C[C@@H]1CCCCO[C@@H](CN(C)C(=O)CCC(F)(F)F)[C@@H](C)CN([C@@H](C)CO)C(=O)c2cc(NS(=O)(=O)c3ccc(Cl)cc3)ccc2O1 | 22.3% (inactive)

same assay, conditions: purified IRAP, Leu-AMC cleavage fluorescence, 1 h; at 5.6 µM (top of the series)

Row | Structure (SMILES) | activation
30 | C[C@@H]1CCCCO[C@@H](CN(C)Cc2ccccc2)[C@@H](C)CN([C@H](C)CO)C(=O)c2cc(NS(=O)(=O)c3cccs3)ccc2O1 | 16.2% (inactive)
31 | COc1ccc(S(=O)(=O)N(C)C[C@@H]2Oc3ncccc3C(=O)N([C@H](C)CO)C[C@@H]2C)cc1 | 9.5% (inactive)
32 | Cc1ccc(-c2cc(C(=O)N3CCCC3)c3ccccc3n2)s1 | 152% (inactive)
33 | C[C@@H]1CCCCO[C@@H](CN(C)Cc2ccc3c(c2)OCO3)[C@@H](C)CN([C@@H](C)CO)C(=O)c2cc(NS(=O)(=O)c3ccccc3)ccc2O1 | 7.88% (inactive)

same assay, conditions: purified IRAP, Leu-AMC cleavage fluorescence, 1 h; at 10 µM (top of the series)

Row | Structure (SMILES) | activation
34 | CCCN(C)C[C@@H]1OCCCC[C@@H](C)Oc2ccc(NS(=O)(=O)c3ccc(C)cc3)cc2C(=O)N([C@H](C)CO)C[C@@H]1C | -8.1% (inactive)
35 | C[C@@H]1CCCCO[C@@H](CN(C)C)[C@H](C)CN([C@@H](C)CO)C(=O)c2cc(NC(=O)Nc3ccc(C(F)(F)F)cc3)ccc2O1 | -1.06% (inactive)

same assay, conditions: purified IRAP, Leu-AMC cleavage fluorescence, 1 h; at 11 µM (top of the series)

Row | Structure (SMILES) | activation
36 | COc1ccc(S(=O)(=O)Nc2ccc3c(c2)C(=O)N([C@@H](C)CO)C[C@H](C)[C@H](CN(C)C)OCCCC[C@@H](C)O3)cc1 | -2.35% (inactive)
37 | C[C@@H]1CCCCO[C@@H](CN(C)Cc2ccc3c(c2)OCO3)[C@@H](C)CN([C@H](C)CO)C(=O)c2cc(NS(=O)(=O)c3cccs3)ccc2O1 | -8.52% (inactive)
38 | CCCNC(=O)C[C@@H]1CC[C@@H]2[C@H](COC[C@H](O)CN2C(=O)Nc2cccc(Cl)c2)O1 | 30.1% (inactive)
39 | Cc1noc(C)c1NC(=O)Nc1ccc2c(c1)C(=O)N([C@H](C)CO)C[C@@H](C)[C@@H](CN(C)Cc1ccc(C(F)(F)F)cc1)OCCCC[C@@H](C)O2 | -4.93% (inactive)
40 | C[C@H]1CN([C@@H](C)CO)C(=O)c2cccc(NC(=O)Nc3ccc(C(F)(F)F)cc3)c2O[C@@H]1CN(C)CC1CC1 | -18.4% (inactive)
41 | CCC(=O)N(C)C[C@H]1Oc2ncc(C#Cc3ccncc3)cc2C(=O)N([C@H](C)CO)C[C@H]1C | 4.22% (inactive)
42 | C[C@@H]1CCCCO[C@H](CN(C)C)[C@H](C)CN([C@H](C)CO)C(=O)c2cc(NS(=O)(=O)c3ccc(Cl)cc3)ccc2O1 | 8.36% (inactive)
43 | C[C@H](CO)N1C[C@H](C)[C@H](CN(C)Cc2ccncc2)Oc2c(NC(=O)Nc3ccc(C(F)(F)F)cc3)cccc2C1=O | 10.6% (inactive)
44 | Cc1ccc(S(=O)(=O)Nc2ccc3c(c2)C(=O)N([C@@H](C)CO)C[C@H](C)[C@H](CN(C)C)OCCCC[C@@H](C)O3)cc1 | 8.57% (inactive)
45 | C[C@@H]1CCCCO[C@@H](CN(C)CC2CCCCC2)[C@H](C)CN([C@@H](C)CO)C(=O)c2cc(NC(=O)Nc3ccccc3)ccc2O1 | -13.9% (inactive)
46 | C[C@@H]1CCCCO[C@@H](CN(C)CC2CC2)[C@@H](C)CN([C@H](C)CO)C(=O)c2cc(NS(=O)(=O)c3ccc(Cl)cc3)ccc2O1 | -6.39% (inactive)
47 | COc1ccc(NC(=O)Nc2ccc3c(c2)C(=O)N([C@@H](C)CO)C[C@@H](C)[C@H](CN(C)Cc2ccc(C(=O)O)cc2)OCCCC[C@H](C)O3)cc1 | 58.5% (inactive)
48 | COc1ccc(C(=O)O)cc1S(=O)(=O)Nc1cc(C(F)(F)F)ccc1N1CCCCC1 | 18.7% (inactive)
49 | COc1ccc(CN(C)C[C@H]2OCCCC[C@@H](C)Oc3ccc(NS(=O)(=O)c4cccs4)cc3C(=O)N([C@H](C)CO)C[C@H]2C)cc1 | 10% (inactive)
50 | O=C(C[C@H]1CC[C@H]2[C@@H](COC[C@@H](O)CN2C(=O)Nc2cccc(Cl)c2)O1)N1CCCCC1 | 16.9% (inactive)
51 | C[C@H](CO)N1C[C@H](C)[C@H](CN(C)Cc2ccc(C(=O)O)cc2)Oc2c(NC(=O)Nc3ccccc3)cccc2C1=O | 24.2% (inactive)
52 | COc1ccc(CN(C)C[C@H]2OCCCC[C@@H](C)Oc3ccc(NS(=O)(=O)c4cccs4)cc3C(=O)N([C@@H](C)CO)C[C@H]2C)cc1 | 2.6% (inactive)
53 | C[C@@H]1CCCCO[C@@H](CN(C)S(C)(=O)=O)[C@@H](C)CN([C@@H](C)CO)C(=O)c2cc(NS(=O)(=O)c3ccc(Cl)cc3)ccc2O1 | -13.3% (inactive)

Row | Structure (SMILES) | activation
54 | N#Cc1c(N2CCNCC2)nc(-c2ccco2)c2c1CCCC2 | 56.4% (inactive)
55 | C[C@H]1CN([C@@H](C)CO)C(=O)c2cccc(NC(=O)Nc3ccc(C(F)(F)F)cc3)c2O[C@@H]1CN(C)C | -7.32% (inactive)
56 | CCCN(C)C[C@@H]1OCCCC[C@H](C)Oc2ccc(NC(=O)Nc3ccc(F)cc3)cc2C(=O)N([C@H](C)CO)C[C@@H]1C | -36.2% (inactive)
57 | CNC[C@H]1OCCCC[C@@H](C)Oc2ccc(NS(=O)(=O)c3ccc(C)cc3)cc2C(=O)N([C@@H](C)CO)C[C@H]1C | -8.83% (inactive)
58 | C[C@@H]1CCCCO[C@@H](CN(C)Cc2ccccc2)[C@H](C)CN([C@H](C)CO)C(=O)c2cc(NS(=O)(=O)c3cccs3)ccc2O1 | -6.87% (inactive)
59 | C[C@@H]1CCCCO[C@H](CN(C)Cc2ccccc2)[C@H](C)CN([C@H](C)CO)C(=O)c2cc(NS(=O)(=O)c3ccccc3)ccc2O1 | -9.37% (inactive)
60 | Cc1ccccc1-c1ccc2c(c1)O[C@@H](CN(C)Cc1ccc(C(=O)O)cc1)[C@@H](C)CN([C@H](C)CO)S2(=O)=O | 3.78% (inactive)
61 | C[C@@H]1CCCCO[C@H](CN(C)Cc2ccc(C(=O)O)cc2)[C@H](C)CN([C@@H](C)CO)C(=O)c2cc(NC(=O)Nc3ccc(C(F)(F)F)cc3)ccc2O1 | 11.1% (inactive)
62 | COc1ccc(NC(=O)Nc2ccc3c(c2)C(=O)N([C@H](C)CO)C[C@@H](C)[C@H](CN(C)Cc2ccc(C(=O)O)cc2)OCCCC[C@@H](C)O3)cc1 | 10% (inactive)
63 | O=C(O)c1cccc(NC(=O)c2ccccc2NC(=O)c2cccc([N+](=O)[O-])c2)c1 | 8.03% (inactive)
64 | C[C@H]1CN([C@@H](C)CO)C(=O)c2cccc(NC(=O)Nc3ccc(F)cc3)c2O[C@@H]1CN(C)C(=O)Nc1ccc2c(c1)OCO2 | 21.6% (inactive)
65 | C[C@@H]1CN([C@H](C)CO)C(=O)c2cc(NC(=O)Nc3ccc(F)cc3)ccc2O[C@H]1CN(C)Cc1ccc(C(=O)O)cc1 | 1.25% (inactive)
66 | C[C@H](CO)N1C[C@H](C)[C@H](CN(C)CC2CCCCC2)Oc2c(NC(=O)Nc3ccc(C(F)(F)F)cc3)cccc2C1=O | 12.3% (inactive)
67 | Cc1ccccc1-c1ccc2c(c1)O[C@@H](CN(C)Cc1ccc(C(=O)O)cc1)[C@@H](C)CN([C@@H](C)CO)S2(=O)=O | 4.16% (inactive)
68 | COc1ccc(NC(=O)Nc2cccc3c2O[C@H](CN(C)Cc2ccc(C(=O)O)cc2)[C@H](C)CN([C@H](C)CO)C3=O)cc1 | 8.21% (inactive)
69 | Cc1noc(C)c1S(=O)(=O)Nc1ccc2c(c1)C(=O)N([C@H](C)CO)C[C@@H](C)[C@@H](CN(C)CC1CCCCC1)OCCCC[C@@H](C)O2 | 2.83% (inactive)
70 | COc1ccc(CN(C)C[C@H]2OCCCC[C@@H](C)Oc3ccc(NS(=O)(=O)c4cccs4)cc3C(=O)N([C@@H](C)CO)C[C@@H]2C)cc1 | 24.3% (inactive)
